Assay results as given in article PMC7937321 (Genes and Environment, 2021).

System: TK6 cells
Assay: Cytotoxicity in the TK6 assay (CE, RS, RSG, RTG)
Details: for RS: graph data
[1] = Short treatment, +S9 mix, dose 445 μg/mL
[2] = Short treatment, +S9 mix, dose 712 μg/mL
[3] = Short treatment, +S9 mix, dose 1138 μg/mL
[4] = Short treatment, +S9 mix, dose 1821 μg/mL
[5] = Short treatment, -S9 mix, dose 173.70 μg/mL
[6] = Short treatment, -S9 mix, dose 277.90 μg/mL
[7] = Short treatment, -S9 mix, dose 444.70 μg/mL
[8] = Short treatment, -S9 mix, dose 711.5 μg/mL
[9] = Short treatment, -S9 mix, dose 1138.4 μg/mL
[10] = Short treatment, -S9 mix, dose 1821.4 μg/mL

In the case of `Nc1cc([N+](=O)[O-])ccc1C(=O)O` [4-Nitroanthranilic acid], the “Adjusted CE0(%)” value [1] was 58.9%, the “RS0 (%)” value [1] was 49.8% and the RSG [1] was 0.653. For the same compound, the “Adjusted CE0(%)” value [2] was 79.3%, the “RS0 (%)” value [2] was 67.0% and the RSG [2] was 0.824. For the same compound, the “Adjusted CE0(%)” value [3] was 96.3%, the “RS0 (%)” value [3] was 81.4% and the RSG [3] was 0.854. The “Adjusted CE0(%)” value [4] was 3.0%, the “RS0 (%)” value [4] was 2.6% and the RSG [4] was 0.036. The “Adjusted CE0(%)” value [5] was 132.4%, the “RS0 (%)” value [5] was 186.4% and the RSG [5] was 1.135. The “Adjusted CE0(%)” value [6] was 61.6%, the “RS0 (%)” value [6] was 86.8% and the RSG [6] was 0.893. For the same compound, the “Adjusted CE0(%)” value [7] was 84.7%, the “RS0 (%)” value [7] was 119.3% and the RSG [7] was 0.880. The “Adjusted CE0(%)” value [8] was 60.6%, the “RS0 (%)” value [8] was 85.4% and the RSG [8] was 0.786. The “Adjusted CE0(%)” value [9] was 33.1%, the “RS0 (%)” value [9] was 46.6% and the RSG [9] was 0.678. For the same compound, the “Adjusted CE0(%)” value [10] was 22.9%, the “RS0 (%)” value [10] was 32.3% and the RSG [10] was 0.302. For the same compound, the CE3 (as fraction in mutation frequency table, 24 h treatment, -S9 mix, 173.70 μg/mL) was 0.841, the CE3 (as fraction in mutation frequency table, 24 h treatment, -S9 mix, 277.90 μg/mL) was 0.841 and the CE3 (as fraction in mutation frequency table, 24 h treatment, -S9 mix, 444.70 μg/mL) was 0.793. The CE3 (as fraction in mutation frequency table, 24 h treatment, -S9 mix, 711.5 μg/mL) was 0.687, the CE3 (as fraction in mutation frequency table, 24 h treatment, -S9 mix, 1138.4 μg/mL) was 0.950 and the CE3 (as fraction in mutation frequency table, 24 h treatment, -S9 mix, 1821.4 μg/mL) was 0.433. For the same compound, the CE3 (as fraction, mutation frequency table, Short treatment, +S9 mix, dose 173.7 μg/mL) was 0.706, the CE3 (as fraction, mutation frequency table, Short treatment, +S9 mix, dose 277.9 μg/mL) was 0.667 and the CE3 (as fraction, mutation frequency table, Short treatment, +S9 mix, dose 445 μg/mL) was 0.816. It also gave a CE3 (as fraction, mutation frequency table, Short treatment, +S9 mix, dose 712 μg/mL) of 0.980, a CE3 (as fraction, mutation frequency table, Short treatment, +S9 mix, dose 1138 μg/mL) of 0.841 and a CE3 (as fraction, mutation frequency table, Short treatment, +S9 mix, dose 1821 μg/mL) of 0.446. The CE3 (as fraction, mutation frequency table, Short treatment, -S9 mix, dose 173.70 μg/mL) was 0.893, the CE3 (as fraction, mutation frequency table, Short treatment, -S9 mix, dose 277.90 μg/mL) was 0.770 and the CE3 (as fraction, mutation frequency table, Short treatment, -S9 mix, dose 444.70 μg/mL) was 1.046. It also gave a CE3 (as fraction, mutation frequency table, Short treatment, -S9 mix, dose 711.5 μg/mL) of 1.012, a CE3 (as fraction, mutation frequency table, Short treatment, -S9 mix, dose 1138.4 μg/mL) of 0.950 and a CE3 (as fraction, mutation frequency table, Short treatment, -S9 mix, dose 1821.4 μg/mL) of 1.046. It also gave an RS (24 h, -S9 mix, 173.70 μg/mL) of 133.0, an RS (24 h, -S9 mix, 277.90 μg/mL) of 48.3 and an RS (24 h, -S9 mix, 444.70 μg/mL) of 85.4. For the same compound, the RS (24 h, -S9 mix, 711.5 μg/mL) was 59.0, the RS (24 h, -S9 mix, 1138.4 μg/mL) was 31.8 and the RS (24 h, -S9 mix, 1821.4 μg/mL) was 16.7. The RS (Short treatment, +S9 mix, dose 173.7 μg/mL) was 71.1, the RS (Short treatment, +S9 mix, dose 277.9 μg/mL) was 91.1 and the RS [1] was 49.8. For the same compound, the RS [2] was 67.0, the RS [3] was 81.4 and the RS [4] was 2.6. For the same compound, the RS [5] was 186.4, the RS [6] was 86.8 and the RS [7] was 119.3. For the same compound, the RS [8] was 85.4, the RS [9] was 46.6 and the RS [10] was 32.3.
